Experimental data: patent US7745493B2, “Methods of treating tardive dyskinesia and other movement disorders” (priority 1998, dated 2010)

Tests used:
[1] = test system: person one with long-standing TD; assay: Case Report 2: clinical observation of TD; assay type: in vivo, human; settings: Case 2; acamprosate 666 mg three times daily added to memantine; magnesium oxide 250 mg three times a day added to acamprosate
Source text: person one had long-standing TD following decades of treatment with the neuroleptic drug perphenazine. Their involuntary movements comprised bilateral chorea of the upper extremities, plus writhing of the tongue and tongue-biting. Both of the latter movements led to a very sore tongue. In addition, the patient experienced impairment of their short-term memory, which was attributed primarily to cerebrovascular disease.
They also continued to have a sore tongue. […] In addition to memantine, the patient regularly took antiepileptic drugs (gabapentin and lamotrigine), antiplatelet agents (aspirin and ticlopidine), as well as medications for hypertension, glaucoma and gastrointestinal symptoms (isosorbide mononitrate, metoprolol, timolol eye drops and olsalazine).
The patient was placed on a treatment regime that included administration of 666 mg of acamprosate, three times daily. In this case, acamprosate was added to the patient's regimen, which continued to include memantine. […] Despite past evidence from formal testing that the patient had impaired short-term memory, they performed normally on a two-sentence memory task, which involved testing the patient's recall ability using two sentences containing 13 separate details. On the two-sentence memory task, within three attempts the patient was able to recall 9 details and, using a multiple choice format, was able to recall a total of 11 details. Recall of 9 details on the third attempt would be normal for a middle-aged adult, let alone one […].
After a full year on memantine and acamprosate, the memantine was discontinued, with little change in the patient's symptoms.
Magnesium oxide, 250 mg three times a day, was added, each dose being taken together with the acamprosate. […] The effect was definite: movements worsened when magnesium oxide was stopped and improved when it was restarted. After a month on magnesium, the dosage of acamprosate was increased to 666 mg four times a day, with 250 mg of magnesium oxide given together with each dose. […] The only residual sign of TD was a mild degree of involuntary movement of the hands.

[2] = test system: patients with Meige syndrome; settings: cited from earlier work
[3] = test system: person two with long-standing TD; assay: Case Report 1: clinical observation of TD with blepharospasm; assay type: in vivo, human; settings: Case 1; for effect on involuntary movements of TD: clinical observation, acamprosate 333 mg four times a day
Experimental: Palliative treatment with alprazolam (an anxiolytic and GABA agonist via modulation; dosage 0.25 mg four times a day) and trihexyphenidyl (an anticholinergic antiparkinson drug that inhibits dopamine re-uptake at synapses; dosage 2 mg twice a day) was prescribed by another physician.
Initially, their other medications were maintained unchanged.
Nimodipine was discontinued, and the patient was begun on memantine at a dosage of 10 mg twice a day.
For the following 10 days they added 250 mg three times a day of chelated magnesium.

[4] = test system: person two with Parkinson's disease and peak-dose dyskinesia; assay: Case Report 3: peak-dose dyskinesia of treated Parkinson's disease; assay type: in vivo, human; settings: Case 3; for effect on peak-dose dyskinesia: added to antiparkinson regime, memantine 10 mg three times a day, acamprosate 666 mg three times, then 333 mg four times a day, baclofen 30 and 60 mg daily, magnesium 300 mg three times a day
Experimental: The patient's Parkinson's disease was treated using levodopa/carbidopa and bromocriptine.
Prior to beginning treatment with acamprosate, the patient was on an antiparkinson treatment regime that consisted of 1 mg of pergolide three times a day, 5 mg of selegiline twice a day, and a combination of levodopa/carbidopa consisting of 550-600 mg of levodopa and 125-150 mg of carbidopa administered in divided doses.
The patient began acamprosate as an addition to the antiparkinson regime described above. Initially, the patient received 666 mg of acamprosate administered three times a day. Two weeks later the regime was adjusted such that the patient received 333 mg of acamprosate four times a day, taking one 333 mg pill with each daytime dose of 100 mg levodopa and 25 mg carbidopa. The patient's bedtime does of controlled-release levodopa-carbidopa (200 mg of levodopa and 50 mg of carbidopa) was continued, but were given without acamprosate. […] To confirm that the patient's improvement was due to the administration of acamprosate, the patient was taken off the acamprosate. […] During the period off acamprosate, an attempt was made to replace acamprosate with baclofen (a GABA-receptor agonist) at a total daily dose of 30 mg, and then with baclofen at a total daily dose of 60 mg.
Several months later, magnesium (300 mg elemental magnesium, as a mixed chelate), was added to the regimen. It was taken three times a day, together with a one of the patient's regular doses of levodopa/carbidopa. […] To establish whether the improvement was due to magnesium, the magnesium was stopped after several weeks.

[5] = test system: patients with tic-related symptoms; settings: in vivo; cited from earlier work

| Molecule | effect on involuntary movements of TD ([3]; memantine 10 mg twice a day) | effect on peak-dose dyskinesia [4] | also measured |
| --- | --- | --- | --- |
| [O]=[Mg] [Magnesium oxide] |  |  | effect on involuntary movements of TD [1]: improved further |
| COc1cc2c(cc1OC)C1CC(=O)C(CC(C)C)CN1CC2 (stereo not shown) [Tetrabenazine] |  |  | patients with involuntary movements alleviated [2]: 4 of 6; undesirable side effects [2]: drowsiness, drooling and Parkinsonism |
| OC(CCN1CCCCC1)(c1ccccc1)C1CCCCC1 (stereo not shown) [Trihexyphenidyl, trihexyphenidyl] | discontinued without a change in their involuntary movements |  |  |
| Cc1nnc2n1-c1ccc(Cl)cc1C(c1ccccc1)=NC2 [alprazolam] | no detectable effect |  |  |
| NCC(CC(=O)O)c1ccc(Cl)cc1 (stereo not shown) [baclofen] |  | no beneficial effect | adverse effects ([4]; total daily dose 30 mg, then 60 mg): sedation and nausea |
| CC(C[N+](C)(C)C)OC(N)=O (stereo not shown) [bethanecol] |  | did not appear to affect |  |
| O=C1CC2(CCCC2)CC(=O)N1CCCCN1CCN(c2ncccn2)CC1 [buspirone] | either produced little benefit or were not tolerated |  |  |
| NC(=O)N1c2ccccc2C=Cc2ccccc21 [carbamazepine] |  | did not appear to affect |  |
| Clc1cccc(Cl)c1N=C1NCCN1 [clonidine] |  |  | patients showing clinically significant improvement of tic-related symptoms [5]: < 50%; side effects that limit use [5]: hypotension or sedation |
| COCCOC(=O)C1=C(C)NC(C)=C(C(=O)OC(C)C)C1c1cccc([N+](=O)[O-])c1 (stereo not shown) [nimodipine] |  |  | reduction of involuntary movements ([3]; 30 mg four times a day): about 50%; time able to read text or music at a time ([3]; 30 mg four times a day): no more than 30 minutes; adverse effects ([3]; nimodipine 30 mg four times a day, memantine 10 mg twice a day): dizziness, lightheadedness, and palpitations |
| CN[C@H]1CC[C@@H](c2ccc(Cl)c(Cl)c2)c2ccccc21 [sertraline] | either produced little benefit or were not tolerated | did not appear to affect |  |
| medroxyprogesterone |  | did not appear to affect |  |
| vitamin E | either produced little benefit or were not tolerated |  |  |
